# US10730866B2, “Indole derivatives and use thereof” (Purdue Pharma L.P., priority 2014, dated 2020)
# Target: human Nav1.7 (Homo sapiens (Human), UniProt Q15858)
# Experiment: FLIPR or FLIPR TETRA sodium dye assay for sodium channel blocking activity
# Type: cell-based
# Details: recombinant HEK293 cells expressing human Nav1.7
# Procedure: In vitro assays were performed in a recombinant cell line expressing cDNA encoding the alpha subunit (Nav1.7, SCN9a, PN1, NE) of human Nav1.7 (Accession No. NM_002977). The cell line was provided by investigators at Yale University (Cummins et al, J. Neurosci. 18(23): 9607-9619 (1998)). For dominant selection of the Nav1.7-expressing clones, the expression plasmid co-expressed the neomycin resistance gene. The cell line was constructed in the human embryonic kidney cell line, HEK293, under the influence of the CMV […] promoter, and stable clones were selected using limiting dilution cloning and antibiotic selection using the neomycin analogue, G418. Recombinant beta and gamma subunits were not introduced into this cell line. Additional cell lines expressing recombinant Nav1.7 cloned from other species can also be used, alone or in combination with various beta subunits, gamma subunits or chaperones.
# Unless otherwise noted, cell culture reagents were purchased from Mediatech of Herndon, Va. The recombinant Nav1.7/HEK293 cells were routinely cultured in growth medium consisting of Dulbecco's […] essential medium containing 10% fetal bovine serum (FBS, Hyclone, Thermo Fisher Scientific, Logan, Utah), 100 U/mL penicillin, 100 μg/mL streptomycin, 2-4 mM L-glutamine, and […] G418. For natural, non-recombinant cell lines, the selective antibiotic was omitted, and additional media formulations can be applied as needed.
# The final buffer consisted of 20 mM Hepes, pH 7.3, 1.261 mM CaCl2, 0.493 mM MgCl2, 0.407 mM Mg(SO)4, 5.33 mM KCl, 0.441 mM KH2PO4, 137 mM NaCl, 0.336 mM Na2HPO4 and […] D-glucose (Hanks et al., Proc. Soc. Exp. Biol. Med. 71:196 (1949)), and the simple formulation was typically the basic buffer throughout the assay (i.e., all wash and addition steps).
# The fluorescence indicator used in the primary fluorescence assay was the cell permeant version of CoroNa™ Green (Invitrogen, Molecular Probes, Eugene, Oreg.), a dye that emits light in the fluorescence range (Harootunian et al., J. Biol. Chem. 264(32):19458-19467 (1989)). The intensity of this emission, but not the wavelength range, is increased when the dye is exposed to Na^+ ions, which it can bind with partial selectivity. Cells expressing Nav1.7 or other sodium channels were loaded with the CoroNa™ Green dye immediately in advance of the fluorescence assay, and then, after agonist stimulation, the mobilization of Na^+ ions was detected as the Na^+ ions flowed from the extracellular fluid into the cytoplasm through the activated sodium channel pores. The dye was stored in the dark as a lyophilized powder, and then an aliquot was dissolved immediately before the cell loading procedure, according to the instructions of the manufacturer, to a stock concentration of 10 mM in DMSO. It was then diluted in the assay buffer to a 4× concentrated working solution, so that the final concentration of dye in the cell loading buffer was 5 μM.
# In the fluorescence assays, two agonists were used in combination, namely 1) veratridine; and 2) the venom from the yellow scorpion, Leiurus quinquestriatus hebraeus. Veratridine is an alkaloid small molecule that facilitates the capture of channel openings by inhibiting inactivation, and the scorpion venom is a natural preparation that includes peptide toxins selective for different subsets of voltage-gated sodium channels. These scorpion toxins inhibit the fast inactivation of their cognate target channels. Stock solutions of the agonists were prepared to 40 mM in DMSO (veratridine) and 1 mg/mL in dH2O (scorpion venom), and then diluted to make a 4× or 2× stock (depending on the particular assay) in assay buffer, the final concentration being 100 μM (veratridine) and 10 μg/mL (scorpion venom). Both of the agonists were purchased from Sigma Aldrich, St. Louis, Mo.
# Test compounds were dissolved in DMSO to yield 10 mM stock solutions. […]
# Chain of human Nav1.7 (Q15858 other isoform, or with tags, fused parts or gaps): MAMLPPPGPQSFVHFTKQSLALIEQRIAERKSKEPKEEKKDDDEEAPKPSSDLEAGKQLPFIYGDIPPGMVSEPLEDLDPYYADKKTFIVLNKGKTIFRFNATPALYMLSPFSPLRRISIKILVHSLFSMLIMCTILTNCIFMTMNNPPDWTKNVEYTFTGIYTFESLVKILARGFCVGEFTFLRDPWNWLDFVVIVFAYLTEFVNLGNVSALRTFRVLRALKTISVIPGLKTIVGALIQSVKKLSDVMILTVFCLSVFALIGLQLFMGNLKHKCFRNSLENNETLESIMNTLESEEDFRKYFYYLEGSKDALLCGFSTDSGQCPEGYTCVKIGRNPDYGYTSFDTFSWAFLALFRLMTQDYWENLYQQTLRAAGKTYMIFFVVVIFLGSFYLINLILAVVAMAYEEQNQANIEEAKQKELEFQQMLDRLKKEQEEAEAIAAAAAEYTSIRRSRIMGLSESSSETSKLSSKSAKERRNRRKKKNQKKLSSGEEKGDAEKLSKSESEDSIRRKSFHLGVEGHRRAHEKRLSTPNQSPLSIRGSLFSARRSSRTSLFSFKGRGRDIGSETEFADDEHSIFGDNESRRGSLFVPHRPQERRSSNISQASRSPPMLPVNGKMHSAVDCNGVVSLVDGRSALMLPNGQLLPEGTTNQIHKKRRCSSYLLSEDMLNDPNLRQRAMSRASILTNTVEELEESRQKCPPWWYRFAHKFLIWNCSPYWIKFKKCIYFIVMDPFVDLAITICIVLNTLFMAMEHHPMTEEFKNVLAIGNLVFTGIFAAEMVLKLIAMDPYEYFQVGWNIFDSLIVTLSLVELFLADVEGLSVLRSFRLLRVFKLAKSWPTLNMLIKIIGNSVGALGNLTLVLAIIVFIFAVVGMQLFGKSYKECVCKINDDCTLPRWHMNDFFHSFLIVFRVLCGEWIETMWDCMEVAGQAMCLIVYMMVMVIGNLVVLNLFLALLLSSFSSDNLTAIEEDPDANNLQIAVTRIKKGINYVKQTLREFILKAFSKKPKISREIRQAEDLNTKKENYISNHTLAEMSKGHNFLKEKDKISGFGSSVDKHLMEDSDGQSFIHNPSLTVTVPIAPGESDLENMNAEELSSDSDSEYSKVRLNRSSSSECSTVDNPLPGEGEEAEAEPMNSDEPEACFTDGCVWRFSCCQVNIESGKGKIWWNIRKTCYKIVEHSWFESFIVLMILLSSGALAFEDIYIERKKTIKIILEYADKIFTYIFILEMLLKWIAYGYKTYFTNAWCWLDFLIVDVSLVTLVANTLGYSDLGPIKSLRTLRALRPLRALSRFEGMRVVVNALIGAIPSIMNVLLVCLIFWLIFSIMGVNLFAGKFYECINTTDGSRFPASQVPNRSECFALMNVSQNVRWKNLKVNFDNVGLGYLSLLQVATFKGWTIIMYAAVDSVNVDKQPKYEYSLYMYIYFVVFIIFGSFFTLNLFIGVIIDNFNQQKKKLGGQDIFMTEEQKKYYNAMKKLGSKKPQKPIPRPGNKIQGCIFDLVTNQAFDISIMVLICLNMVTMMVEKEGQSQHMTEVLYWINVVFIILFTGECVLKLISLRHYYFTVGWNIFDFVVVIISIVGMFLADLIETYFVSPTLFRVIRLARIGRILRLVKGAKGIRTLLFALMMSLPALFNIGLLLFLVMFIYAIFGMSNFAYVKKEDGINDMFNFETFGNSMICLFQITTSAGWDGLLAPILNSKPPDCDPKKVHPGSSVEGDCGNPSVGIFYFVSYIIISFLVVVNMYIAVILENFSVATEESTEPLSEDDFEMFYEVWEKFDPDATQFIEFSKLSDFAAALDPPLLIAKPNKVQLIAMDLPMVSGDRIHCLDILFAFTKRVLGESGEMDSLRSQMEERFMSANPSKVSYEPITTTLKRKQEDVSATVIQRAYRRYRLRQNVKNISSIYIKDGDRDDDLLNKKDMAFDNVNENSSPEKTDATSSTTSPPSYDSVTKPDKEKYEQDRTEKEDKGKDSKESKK
row,SMILES,IC50
1,"O=C(Nc1ccc(C(F)(F)F)cc1)c1cc(N[C@H]2CCNC2=O)cc(-c2ccc3[nH]ccc3c2)n1 [Compound 88, (S)-6-(1H-indol-5-yl)-4-((2-oxopyrrolidin-3-yl)amino)-N-(4-(trifluoromethyl)phenyl)picolinamide]",4.89 ± 0.388 µM
2,"OC[C@@H](O)c1cccc(-c2ccc3nn(Cc4ccc(C(F)(F)F)cc4)cc3c2)n1 [Compound 108, (S)-1-(6-(2-(4-(trifluoromethyl)benzyl)-2H-indazol-5-yl)pyridin-2-yl)ethane-1,2-diol]",4.68 ± 0.412 µM
3,"OC[C@@H](O)c1cccc(-c2ccc3c(ccn3Cc3ccc(C(F)(F)F)cc3)c2)n1 [Compound 109, (S)-1-(6-(1-(4-(trifluoromethyl)benzyl)-1H-indol-5-yl)pyridin-2-yl)ethane-1,2-diol]",0.177 ± 0.005 µM
4,"OC[C@@H](O)c1cccc(-c2ccc3c(c2)ncn3Cc2ccc(C(F)(F)F)cc2)n1 [Compound 110, (S)-1-(6-(1-(4-(trifluoromethyl)benzyl)-1H-benzo[d]imidazol-5-yl)pyridin-2-yl)ethane-1,2-diol]",3.44 ± 0.712 µM
5,"O=S(=O)(N1CCCCC1)n1ccc2cc(-c3cccc([C@H](O)CO)n3)ccc21 [Compound 111, (S)-1-(6-(1-(piperidin-1-ylsulfonyl)-1H-indol-5-yl)pyridin-2-yl)ethane-1,2-diol]",0.716 ± 0.073 µM
6,"C[C@H](Nc1cc(C(N)=O)nc(-c2ccc3c(ccn3Cc3ccc(C(F)(F)F)cc3)c2)n1)C(N)=O [Compound 112, (S)-6-((1-amino-1-oxopropan-2-yl)amino)-2-(1-(4-(trifluoromethyl)benzyl)-1H-indol-5-yl)pyrimidine-4-carboxamide]",4.12 ± 0.525 µM
7,"C[C@H](Nc1cc(C(N)=O)nc(-c2ccc3c(ccn3CC3CCCCC3)c2)n1)C(N)=O [Compound 113, (S)-6-((1-amino-1-oxopropan-2-yl)amino)-2-(1-(cyclohexylmethyl)-1H-indol-5-yl)pyrimidine-4-carboxamide]",4.43 ± 0.541 µM
8,"N#Cc1cc([C@@H](O)CO)cc(-c2ccc3c(ccn3Cc3ccc(C(F)(F)F)cc3)c2)n1 [Compound 119, (R)-4-(1,2-dihydroxyethyl)-6-(1-(4-(trifluoromethyl)benzyl)-1H-indol-5-yl)picolinonitrile]",5.09 ± 0.356 µM
9,"NC(=O)c1cc([C@H](O)CO)cc(-c2ccc3c(ccn3Cc3ccc(C(F)(F)F)cc3)c2)n1 [Compound 121, (S)-4-(1,2-dihydroxyethyl)-6-(1-(4-(trifluoromethyl)benzyl)-1H-indol-5-yl)picolinamide]",2.37 ± 0.364 µM
10,"NC(=O)c1cc(-c2ccc3c(ccn3Cc3ccc(C(F)(F)F)cc3)c2)cc([C@@H](O)CO)n1 [Compound 122, (R)-6-(1,2-dihydroxyethyl)-4-(1-(4-(trifluoromethyl)benzyl)-1H-indol-5-yl)picolinamide]",1.74 ± 0.214 µM
11,"CC(C)Cn1ccc2cc(-c3cc([C@H](O)CO)cc(C(N)=O)n3)ccc21 [Compound 124, (S)-4-(1,2-dihydroxyethyl)-6-(1-isobutyl-1H-indol-5-yl)picolinamide]",4.92 ± 0.7 µM
12,"CC(C)Cn1ccc2cc(-c3cc([C@@H](O)CO)cc(C(N)=O)n3)ccc21 [Compound 125, (R)-4-(1,2-dihydroxyethyl)-6-(1-isobutyl-1H-indol-5-yl)picolinamide]",> 20 µM
13,"CC(C)Cn1ccc2cc(-c3cc(C(N)=O)nc([C@H](O)CO)c3)ccc21 [Compound 126, (S)-6-(1,2-dihydroxyethyl)-4-(1-isobutyl-1H-indol-5-yl)picolinamide]",5.91 ± 0.536 µM
14,"Cn1cc(-c2cccc(C(F)(F)F)c2)c2cc(-c3cccc(C(N)=O)n3)ccc21 [Compound 129, 6-(1-methyl-3-(3-(trifluoromethyl)phenyl)-1H-indol-5-yl)picolinamide]",10 to 20 µM
15,"Cn1cc(-c2ccc(C(F)(F)F)cc2)c2cc(-c3cccc(C(N)=O)n3)ccc21 [Compound 130, 6-(1-methyl-3-(4-(trifluoromethyl)phenyl)-1H-indol-5-yl)picolinamide]",> 20 µM
16,"CCN(CC)CCn1cc(-c2ccc(F)cc2)c2ccc(-c3cccc(C(N)=O)n3)cc21 [Compound 131, 6-(1-(2-(diethylamino)ethyl)-3-(4-fluorophenyl)-1H-indol-6-yl)picolinamide]",> 20 µM
17,"Nc1cc(C(=O)Nc2ccc(C(F)(F)F)cc2)nc(-c2ccc3occc3c2)n1 [Compound 138, 6-amino-2-(benzofuran-5-yl)-N-(4-(trifluoromethyl)phenyl)pyrimidine-4-carboxamide]",3.66 ± 2.4 µM
18,"O=C(Nc1ccc(C(F)(F)F)cc1)c1cccc(-c2ccc3[nH]cc(C(=O)O)c3c2)n1 [Compound 139, 5-(6-((4-(trifluoromethyl)phenyl)carbamoyl)pyridin-2-yl)-1H-indole-3-carboxylic acid]",> 20 µM
19,"NC(=O)c1c[nH]c2ccc(-c3cccc(C(=O)Nc4ccc(C(F)(F)F)cc4)n3)cc12 [Compound 140, 5-(6-((4-(trifluoromethyl)phenyl)carbamoyl)pyridin-2-yl)-1H-indole-3-carboxamide]",> 20 µM
20,"NC(=O)CC[C@H](NC(=O)c1c[nH]c2ccc(-c3cccc(C(=O)Nc4ccc(C(F)(F)F)cc4)n3)cc12)C(N)=O [Compound 141, (S)-2-(5-(6-((4-(trifluoromethyl)phenyl)carbamoyl)pyridin-2-yl)-1H-indole-3-carboxamido)pentanediamide]",> 20 µM
21,"NC(=O)c1cccc(-c2ccc3c(c2)c(C(N)=O)cn3Cc2ccc(C(F)(F)F)cc2)n1 [Compound 142, 5-(6-carbamoylpyridin-2-yl)-1-(4-(trifluoromethyl)benzyl)-1H-indole-3-carboxamide]",> 20 µM
22,"C[C@H](NC(=O)c1cn(Cc2ccc(C(F)(F)F)cc2)c2ccc(-c3cccc(C(N)=O)n3)cc12)C(N)=O [Compound 143, (S)-N-(1-amino-1-oxopropan-2-yl)-5-(6-carbamoylpyridin-2-yl)-1-(4-(trifluoromethyl)benzyl)-1H-indole-3-carboxamide]",> 20 µM
23,"NC(=O)c1cccc(-c2ccc3c(c2)c(CN[C@H]2CCNC2=O)cn3Cc2ccc(C(F)(F)F)cc2)n1 [Compound 144, (S)-6-(3-(((2-oxopyrrolidin-3-yl)amino)methyl)-1-(4-(trifluoromethyl)benzyl)-1H-indol-5-yl)picolinamide]",2.54 ± 0.181 µM
24,"NC(=O)c1cccc(-c2ccc3c(c2)c(CN[C@H]2CCNC2=O)cn3CC2CCCCC2)n1 [Compound 145, (S)-6-(1-(cyclohexylmethyl)-3-(((2-oxopyrrolidin-3-yl)amino)methyl)-1H-indol-5-yl)picolinamide]",10 to 20 µM
25,"NC(=O)[C@H](O)[C@@H](O)c1cccc(-c2ccc3c(ccn3Cc3ccc(C(F)(F)F)cc3)c2)n1 [Compound 151, (2R,3S)-2,3-dihydroxy-3-(6-(1-(4-(trifluoromethyl)benzyl)-1H-indol-5-yl)pyridin-2-yl)propanamide]",0.773 ± 0.09 µM
26,"NC(=O)[C@H](O)[C@@H](O)c1cccc(-c2ccc3c(ccn3CC3CCCCC3)c2)n1 [Compound 152, (2R,3S)-3-(6-(1-(cyclohexylmethyl)-1H-indol-5-yl)pyridin-2-yl)-2,3-dihydroxypropanamide]",0.402 ± 0.032 µM
27,"CC(C)Cn1ccc2cc(-c3cccc([C@H](O)[C@@H](O)C(N)=O)n3)ccc21 [Compound 153, (2R,3S)-2,3-dihydroxy-3-(6-(1-isobutyl-1H-indol-5-yl)pyridin-2-yl)propanamide]",2.62 ± 0.071 µM
28,"NC(=O)c1csc(-c2ccc3c(ccn3Cc3ccc(C(F)(F)F)cc3)c2)n1 [Compound 156, 2-(1-(4-(trifluoromethyl)benzyl)-1H-indol-5-yl)thiazole-4-carboxamide]",0.173 ± 0.018 µM
